# Assay results from patent publication US8993752B2, “Neprilysin inhibitors” (Theravance Biopharma R&D IP, LLC, priority 2011, dated 2015).
# Molecular target: T1, human NEP (Homo sapiens, UniProt P08473)
# T1 construct: purchased R&D Systems, Minneapolis, Minn; 1182-ZN
# Experiment: In vitro enzyme inhibition assay at human NEP (fluorogenic peptide substrate)
# Format: biochemical
# Conditions: recombinant human NEP, substrate Mca-D-Arg-Arg-Leu-Dap-(Dnp)-OH 10 μM, 37° C., values given as ranges; for Ki: read-out: pKi values at human NEP (converted)
# Method: The inhibitory activities of compounds at human and rat neprilysin (EC 3.4.24.11; NEP) and human angiotensin converting enzyme (ACE) were determined using in vitro assays as described below.
# Recombinant human NEP and recombinant human ACE were obtained commercially (R&D Systems, Minneapolis, Minn., catalog numbers 1182-ZN and 929-ZN, respectively). The fluorogenic peptide substrate Mca-D-Arg-Arg-Leu-Dap-(Dnp)-OH (Medeiros et al. (1997) Braz. J. Med. Biol. Res. 30:1157-62; Anaspec, San Jose, Calif.) and Abz-Phe-Arg-Lys(Dnp)-Pro-OH (Araujo et al. (2000) Biochemistry 39:8519-8525; Bachem, Torrance, Calif.) were used in the NEP and ACE assays respectively.
# The assays were performed in 384-well white opaque plates at 37° C. using the fluorogenic peptide substrates at a concentration of 10 μM in Assay Buffer (NEP: 50 mM HEPES, pH 7.5, 100 mM NaCl, 0.01% polyethylene glycol sorbitan monolaurate (Tween-20), 10 μM ZnSO4; ACE: 50 mM HEPES, pH 7.5, 100 mM NaCl, 0.01% Tween-20, 1 μM ZnSO4).
# Test compounds were assayed over the range of concentrations from 10 μM to 20 pM. Test compounds were added to the enzymes and incubated for 30 minute at 37° C. prior to initiating the reaction by the addition of substrate. Reactions were terminated after 20 minutes of incubation at 37° C. by the addition of glacial acetic acid to a final concentration of 3.6% (v/v).
# Plates were read on a fluorometer with excitation and emission wavelengths set to 320 nm and 405 nm, respectively Inhibition constants were obtained by nonlinear regression of the data using the equation (GraphPad Software, Inc., San Diego, Calif.): v=v0/[1+(I/K′)] where v is the reaction rate, v0 is the uninhibited reaction rate, I is the inhibitor concentration and K′ is the apparent inhibition constant.
# Compounds of the invention were tested in this assay and found to have pKi values at human NEP as follows.
# T1 sequence (P08473 whole entry): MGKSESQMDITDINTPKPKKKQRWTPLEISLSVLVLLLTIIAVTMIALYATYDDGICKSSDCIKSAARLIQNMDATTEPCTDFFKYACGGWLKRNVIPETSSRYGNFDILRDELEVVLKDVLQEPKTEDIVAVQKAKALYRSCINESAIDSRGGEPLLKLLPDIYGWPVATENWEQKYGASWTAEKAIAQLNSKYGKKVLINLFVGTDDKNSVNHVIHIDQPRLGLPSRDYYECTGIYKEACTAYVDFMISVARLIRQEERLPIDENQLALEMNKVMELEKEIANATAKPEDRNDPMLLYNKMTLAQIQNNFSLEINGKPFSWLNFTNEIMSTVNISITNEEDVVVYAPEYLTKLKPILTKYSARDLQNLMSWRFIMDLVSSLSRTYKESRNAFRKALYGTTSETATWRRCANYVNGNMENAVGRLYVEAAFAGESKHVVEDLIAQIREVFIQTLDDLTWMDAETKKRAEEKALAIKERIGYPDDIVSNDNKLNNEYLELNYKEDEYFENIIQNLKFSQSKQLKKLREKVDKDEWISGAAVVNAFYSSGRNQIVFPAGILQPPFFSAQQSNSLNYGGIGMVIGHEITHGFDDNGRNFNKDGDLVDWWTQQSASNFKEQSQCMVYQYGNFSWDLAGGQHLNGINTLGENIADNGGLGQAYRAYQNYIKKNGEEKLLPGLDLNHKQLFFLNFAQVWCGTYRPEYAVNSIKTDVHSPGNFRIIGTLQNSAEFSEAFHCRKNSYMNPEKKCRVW
Compound,Ki,pKi values at human NEP
"CCCCc1cc(C(=O)N[C@H](Cc2ccccc2Cl)[C@@H](O)C(=O)O)nn1Cc1c(F)c(F)c(OC)c(F)c1F [Example 2-69, (2R,3R)-3-{[5-Butyl-1-(2,3,5,6-tetrafluoro-4-methoxy-benzyl)-1H-pyrazole-3-carbonyl]-amino}-4-(2-chloro-phenyl)-2-hydroxy-butyric acid]",≤ 1 nM,
"COc1ccc(Cn2nc(C(=O)N[C@H](Cc3ccccc3Cl)[C@@H](O)C(=O)O)cc2C(C)=O)cc1 [Example 2-70, (2R,3R)-3-{[5-Acetyl-1-(4-methoxy-benzyl)-1H-pyrazole-3-carbonyl]-amino}-4-(2-chloro-phenyl)-2-hydroxy-butyric acid]",1.26 to 10 nM,
"COc1c(F)c(F)c(Cn2nc(C(=O)N[C@H](Cc3ccccc3Cl)[C@@H](O)C(=O)O)cc2C(C)=O)c(F)c1F [Example 2-71, (2R,3R)-3-{[5-Acetyl-1-(2,3,5,6-tetrafluoro-4-methoxy-benzyl)-1H-pyrazole-3-carbonyl]-amino}-4-(2-chloro-phenyl)-2-hydroxy-butyric acid]",≤ 1 nM,
"CN(C)C(=O)c1cc(C(=O)N[C@H](Cc2ccccc2Cl)[C@@H](O)C(=O)O)nn1Cc1ccc(F)cc1 [Example 2-72, (2R,3R)-4-(2-Chloro-phenyl)-3-{[5-dimethylcarbamoyl-1-(4-fluoro-benzyl)-1H-pyrazole-3-carbonyl]-amino}-2-hydroxy-butyric acid]",12.6 to 100 nM,
"COc1ccc(Cn2nc(C(=O)N[C@H](Cc3ccccc3Cl)[C@@H](O)C(=O)O)cc2C(=O)N(C)C)cc1 [Example 2-73, (2R,3R)-4-(2-Chloro-phenyl)-3-{[5-dimethylcarbamoyl-1-(4-methoxy-benzyl)-1H-pyrazole-3-carbonyl]-amino}-2-hydroxy-butyric acid]",12.6 to 100 nM,
"O=C(O)Cn1nc(C(=O)N[C@H](Cc2ccccc2Cl)[C@@H](O)C(=O)O)cc1-c1ccc(Cl)cc1Cl [Example 2-74, (2R,3R)-3-{[1-Carboxymethyl-5-(2,4-dichlorophenyl)-1H-pyrazole-3-carbonyl]-amino}-4-(2-chloro-phenyl)-2-hydroxy-butyric acid]",12.6 to 100 nM,
"CCCCc1cc(C(=O)N[C@H](Cc2ccccc2Cl)[C@@H](O)C(=O)O)[nH]n1 [Example 3-1, (2R,3R)-3-[(5-Butyl-2H-pyrazole-3-carbonyl)-amino]-4-(2-chloro-phenyl)-2-hydroxy-butyric acid]",12.6 to 100 nM,
"O=C(N[C@H](Cc1ccccc1Cl)[C@@H](O)C(=O)O)c1cc(-c2ccccc2C(F)(F)F)n[nH]1 [Example 3-2, (2R,3R)-4-(2-Chloro-phenyl)-2-hydroxy-3-{[5-(2-trifluoromethyl-phenyl)-2H-pyrazole-3-carbonyl]-amino}-butyric acid]",12.6 to 100 nM,
"O=C(N[C@H](Cc1ccccc1Cl)[C@@H](O)C(=O)O)c1cc(-c2ccc(F)cc2)n[nH]1 [Example 3-3, (2R,3R)-4-(2-Chloro-phenyl)-3-{[5-(4-fluoro-phenyl)-2H-pyrazole-3-carbonyl]-amino}-2-hydroxy-butyric acid]",12.6 to 100 nM,
"COc1ccccc1-c1cc(C(=O)N[C@H](Cc2ccccc2Cl)[C@@H](O)C(=O)O)[nH]n1 [Example 3-4, (2R,3R)-4-(2-Chloro-phenyl)-2-hydroxy-3-{[5-(2-methoxy-phenyl)-2H-pyrazole-3-carbonyl]-amino}-butyric acid]",12.6 to 100 nM,
"CC(=O)c1cc(C(=O)N[C@H](Cc2ccccc2Cl)[C@@H](O)C(=O)O)[nH]n1 [Example 3-5, (2R,3R)-3-[(5-Acetyl-2H-pyrazole-3-carbonyl)-amino]-4-(2-chloro-phenyl)-2-hydroxy-butyric acid]",12.6 to 100 nM,
"COc1c(F)c(F)c(Cn2nc(C(C)=O)cc2C(=O)N[C@H](Cc2ccccc2Cl)[C@@H](O)C(=O)O)c(F)c1F [Example 3-6, (2R,3R)-3-{[5-Acetyl-2-(2,3,5,6-tetrafluoro-4-methoxy-benzyl)-2H-pyrazole-3-carbonyl]-amino}-4-(2-chloro-phenyl)-2-hydroxy-butyric acid]",≤ 1 nM,
"O=C(N[C@H](Cc1ccccc1Cl)[C@@H](O)C(=O)O)c1cc(-c2cc(Cl)ccc2Cl)n[nH]1 [Example 3-7, (2R,3R)-4-(2-Chloro-phenyl)-3-{[5-(2,5-dichloro-phenyl)-2H-pyrazole-3-carbonyl]-amino}-2-hydroxy-butyric acid]",1.26 to 10 nM,
"O=C(N[C@H](Cc1ccccc1Cl)[C@@H](O)C(=O)O)c1cc(-c2ccc(Cl)cc2Cl)n[nH]1 [Example 3-8, (2R,3R)-4-(2-Chloro-phenyl)-3-{[5-(2,4-dichloro-phenyl)-2H-pyrazole-3-carbonyl]-amino}-2-hydroxy-butyric acid]",1.26 to 10 nM,
"COc1ccc(Cn2cc(C(=O)N[C@H](Cc3ccccc3Cl)[C@@H](O)C(=O)O)cn2)c(F)c1F [Example 4-1, (2R,3R)-4-(2-Chloro-phenyl)-3-{[1-(2,3-difluoro-4-methoxy-benzyl)-1H-pyrazole-4-carbonyl]-amino}-2-hydroxy-butyric acid]",1.26 to 10 nM,
"COc1ccc(Cn2nc(C(=O)N[C@H](Cc3ccccc3C(F)(F)F)[C@@H](O)C(=O)O)cc2C(=O)O)cc1 [Example 5, 5-[(1R,2R)-2-Carboxy-2-hydroxy-1-(2-trifluoromethylbenzyl)-ethylcarbamoyl]-2-(4-methoxybenzyl)-2H-pyrazole-3-carboxylic Acid]",1.26 to 10 nM,
COCCN(C)C(=O)c1cc(C(=O)N[C@H](Cc2ccccc2C(F)(F)F)[C@@H](O)C(=O)O)n[nH]1 [Example 6-9],,7.0-7.9

# The next lines start with results.
Ki,Compound,pKi values at human NEP
1.26 to 10 nM,"O=C(N[C@H](Cc1ccccc1C(F)(F)F)[C@@H](O)C(=O)O)c1cc(C(=O)O)n(Cc2ccc(F)cc2)n1 [Example 6-1, 5-[(1R,2R)-2-Carboxy-2-hydroxy-1-(2-trifluoromethyl-benzyl)-ethylcarbamoyl]-2-(4-fluoro-benzyl)-2H-pyrazole-3-carboxylic acid]",
1.26 to 10 nM,"O=C(N[C@H](Cc1ccccc1C(F)(F)F)[C@@H](O)C(=O)O)c1cc(C(=O)O)[nH]n1 [Example 6-2, 5-[(1R,2R)-2-Carboxy-2-hydroxy-1-(2-trifluoromethyl-benzyl)-ethylcarbamoyl]-2H-pyrazole-3-carboxylic acid]",
12.6 to 100 nM,"CC(C)CN(C)C(=O)c1cc(C(=O)N[C@H](Cc2ccccc2C(F)(F)F)[C@@H](O)C(=O)O)n[nH]1 [Example 6-3, (2R,3R)-2-Hydroxy-3-{[5-(isobutyl-methyl-carbamoyl)-1H-pyrazole-3-carbonyl]-amino}-4-(2-trifluoromethyl-phenyl)-butyric acid]",
12.6 to 100 nM,"O=C(N[C@H](Cc1ccccc1C(F)(F)F)[C@@H](O)C(=O)O)c1cc(C(=O)NCCc2c[nH]cn2)[nH]n1 [Example 6-4, (2R,3R)-2-Hydroxy-3-({5-[2-(1H-imidazol-4-yl)-ethylcarbamoyl]-1H-pyrazole-3-carbonyl}-amino)-4-(2-trifluoromethyl-phenyl)-butyric acid]",
12.6 to 100 nM,"CNC(=O)c1cc(C(=O)N[C@H](Cc2ccccc2C(F)(F)F)[C@@H](O)C(=O)O)n[nH]1 [Example 6-5, (2R,3R)-2-Hydroxy-3-[(5-methylcarbamoyl-1H-pyrazole-3-carbonyl)-amino]-4-(2-trifluoromethyl-phenyl)-butyric acid]",
12.6 to 100 nM,"O=C(N[C@H](Cc1ccccc1C(F)(F)F)[C@@H](O)C(=O)O)c1cc(C(=O)NC2CC2)[nH]n1 [Example 6-6, (2R,3R)-3-[(5-Cyclopropylcarbamoyl-1H-pyrazole-3-carbonyl)-amino]-2-hydroxy-4-(2-trifluoromethyl-phenyl)-butyric acid]",
1.26 to 10 nM,"CN(C)C(=O)c1cc(C(=O)N[C@H](Cc2ccccc2C(F)(F)F)[C@@H](O)C(=O)O)n[nH]1 [Example 6-7, (2R,3R)-3-[(5-Dimethylcarbamoyl-1H-pyrazole-3-carbonyl)-amino]-2-hydroxy-4-(2-trifluoromethyl-phenyl)-butyric acid]",
12.6 to 100 nM,"O=C(N[C@H](Cc1ccccc1C(F)(F)F)[C@@H](O)C(=O)O)c1cc(C(=O)N2CCC(O)CC2)[nH]n1 [Example 6-8, (2R,3R)-2-Hydroxy-3-{[5-(4-hydroxy-piperidine-1-carbonyl)-1H-pyrazole-3-carbonyl]-amino}-4-(2-trifluoromethyl-phenyl)-butyric acid]",
1.26 to 10 nM,"O=C(N[C@H](Cc1ccccc1C(F)(F)F)[C@@H](O)C(=O)O)c1cc(C(=O)N2CC[C@@H](O)C2)[nH]n1 [Example 6-10, (2R,3R)-2-Hydroxy-3-{[5-((R)-3-hydroxy-pyrrolidine-1-carbonyl)-1H-pyrazole-3-carbonyl]-amino}-4-(2-trifluoromethyl-phenyl)-butyric acid]",
